Entries after “also recorded” stand apart in the source; their conditions may differ.
What was measured:
[1] = tested on: PLP-primed effector T cells (splenocytes); assay: Proliferation of effector T cells upon antigen (PLP) stimulation, CFSE flow cytometry; type: cell-based, SJL mice; settings: compound 1 μM, 3 days
From the text: Effect of compounds on proliferation of effector T cells upon antigen stimulation To examine the effect of proliferation of effector T cells in vitro in response to PLP stimulation, T-cell proliferation was examined by flow cytometry using the following assay. SJL mice were immunized with PLP emulsified in CFA. After 10 days, spleens were collected and single cell suspensions were made. After lysis of red blood cells, splenocytes were labeled with carboxy fluorescein succinimidyl ester (CFSE). CFSE-labeled cells were then incubated with PLP for 3 days at 37° C., 5% CO2. Compounds were added at a final concentration of 1 μM. To determine the percentage of CD4^+ cells that divided, the CFSE-labeled cells were stained with antibodies specific for the CD4 marker prior to flow cytometric analysis.

[2] = tested on: PLP-primed effector cells (splenocytes); assay: Cytokine production by PLP-primed effector cells upon antigen stimulation in vitro; type: cell-based, SJL mice; settings: compound 1 μM, 5 μg/ml PLP, 3 days
Description: To examine in vitro the effect of compounds on cytokine production by PLP-primed effector cells, SJL mice were immunized with PLP emulsified in CFA. After 10 days, spleens were collected and single cell suspensions were made. After lysis of red blood cells, splenocytes were stimulated with 5 μg/ml PLP in the presence of compound for 3 days at 37° C., 5% CO2. Control samples were not stimulated and cultured in medium only (“medium”). Compounds were added at a final concentration of 1 μM. After the 3-day incubation, supernatants were collected and stored at −20° C. Cytokines (TNF-α, IFN-γ, IL-5, IL-4, IL-2) were measured in the supernatants using a Cytometric Bead Array kit.

[3] = tested on: experimental autoimmune encephalomyelitis (EAE), brain and spinal cord; assay: Histological analysis of brains and spinal cords of EAE mice at peak disease; type: in vivo, SJL mice
Description: Histological Analysis. At peak disease (14 days PT), mice were euthanized with CO2. […] Brains were cut into three segments (roughly, anterior cerebrum, midbrain and cerebellum) and embedded as a single block. […] A standard H&E (hematoxylin and eosin) glass slide was prepared from each tissue block (brain and spinal cord) from each mouse submitted with two resulting H&E slides per mouse evaluated. Slides were evaluated and lesions seen were graded subjectively for presence (P=present) and/or severity. […] The location of findings, relative to the organ, was denoted as perivascular, periventricular, ependymal or meningeal, and also as focal (in small areas or not throughout the section), or diffuse (throughout the section examined). Focal was defined as very localized and not affecting every structure. Findings not defined as focal were diffuse or affecting every structure (e.g. all vessels). […] Typical murine models of EAE have scattered foci of slight to moderate-sized aggregates of leukocytes and rarely have diffuse infiltrates in the affected tissues.

[4] = tested on: experimental autoimmune encephalomyelitis (EAE); assay: EAE induced by adoptive transfer of PLP-primed effector cells: clinical disease; type: in vivo, SJL mice; settings: for onset, incidence and severity of disease (EAE): ovariectomized female SJL recipient mice, compounds daily s.c. or p.o. from 5-7 days before transfer, severity scale 0-6
[5] = Table II, 14 days PT, grade 0-5
[6] = Table II, 14 days PT, grade 0 within normal limits to 5 severe
[7] = Table III (ER-selective agonists), 14 days PT
[8] = Table III (ER-selective agonists), 14 days PT, grade 0-5

Cc1c(-c2ccc(O)cc2)n(Cc2ccc(OCCN3CCCCC3)cc2)c2ccc(O)cc12.Cl.O [Compound A]
proliferation of CD4+ cells upon antigen stimulation [1]: suppressed
proliferation of CD4− cells upon antigen stimulation [1]: suppressed
proliferation of antigen-specific T cells [1]: decreased proliferation
IFN-γ production by effector T cells upon antigen stimulation [2]: suppressed
IL-4 production by effector T cells upon antigen stimulation [2]: concomitant increase
TNF-α production by effector T cells upon antigen stimulation [2]: inhibited
cytokine production by effector cells upon antigen stimulation [2]: decreased cytokine production
demyelination in spinal cords ([3]; SERM experiment): no demyelination was detected
Brain Meningeal/Perivascular Leukocyte Infiltrates: number of brains with finding/total number evaluated ([3]; Table II, 14 days PT): 3/5
Spinal Cord Demyelination: number with finding/total number evaluated ([3]; Table II, 14 days PT): 0/5
Spinal Cord Meningeal/Perivascular Leukocyte Infiltrates: number with finding/total number evaluated ([3]; Table II, 14 days PT): 1/5
Spinal Cord Meningeal/Perivascular Leukocyte Infiltrates: average severity grade of lesions seen [3, 5]: 1
Brain Meningeal/Perivascular Leukocyte Infiltrates: average severity grade of lesions seen [3, 6]: 2.7
amount of inflammatory cells infiltrating the spinal cords and brains ([3]; compared to mice from other treatment groups (text, SERM experiment)): reduction
pathology and leukocyte infiltration in the brains and spinal cords ([3]; conclusions): reduced pathology and leukocyte infiltration
onset, incidence and severity of disease (EAE) ([4]; hydrochloride monohydrate): delay in onset as well as decreased incidence and severity of disease; also recorded: delayed onset of disease, as well as decreased incidence and severity

C[C@]12CC[C@@H]3c4ccc(O)cc4CC[C@H]3[C@@H]1CC[C@@H]2O [Compound E2, 17β-estradiol]
Brain Meningeal/Perivascular Leukocyte Infiltrates: number of brains with finding/total number evaluated ([3]; Table II, 14 days PT): 4/4
Spinal Cord Demyelination: number with finding/total number evaluated ([3]; Table II, 14 days PT): ¾
Spinal Cord Meningeal/Perivascular Leukocyte Infiltrates: number with finding/total number evaluated ([3]; Table II, 14 days PT): ¾
Spinal Cord Demyelination: average severity grade of lesions seen [3, 5]: 1.3
Spinal Cord Meningeal/Perivascular Leukocyte Infiltrates: average severity grade of lesions seen [3, 5]: 1.7
Brain Meningeal/Perivascular Leukocyte Infiltrates: average severity grade of lesions seen [3, 6]: 2.5
Brain Meningeal/Perivascular Leukocyte Infiltrates: number of brains with finding/total number evaluated [3, 7]: 3/4
Distribution of Brain Lesions [3, 7]: Meningeal
Spinal Cord Demyelination: number with finding/total number evaluated [3, 7]: 1/4
Spinal Cord Meningeal/Perivascular Leukocyte Infiltrates: number with finding/total number evaluated [3, 7]: 2/4
Brain Meningeal/Perivascular Leukocyte Infiltrates: average severity grade of lesions seen [3, 8]: 1.7
Spinal Cord Demyelination: average severity grade of lesions seen [3, 8]: 1
Spinal Cord Meningeal/Perivascular Leukocyte Infiltrates: average severity grade of lesions seen [3, 8]: 1
onset, incidence and severity of disease (EAE) [4]: delay in onset as well as decreased incidence and severity of disease

C=Cc1cc(O)cc2nc(-c3ccc(O)c(F)c3)oc12 [ERβ-041]
Brain Meningeal/Perivascular Leukocyte Infiltrates: number of brains with finding/total number evaluated [3, 7]: 4/4
Spinal Cord Demyelination: number with finding/total number evaluated [3, 7]: 2/4
Spinal Cord Meningeal/Perivascular Leukocyte Infiltrates: number with finding/total number evaluated [3, 7]: 2/4
Brain Meningeal/Perivascular Leukocyte Infiltrates: average severity grade of lesions seen [3, 8]: 2.3
Spinal Cord Demyelination: average severity grade of lesions seen [3, 8]: 1.5
Spinal Cord Meningeal/Perivascular Leukocyte Infiltrates: average severity grade of lesions seen [3, 8]: 1.5

C[C@]12CC[C@@H]3c4ccc(O)cc4C[C@@H](CCCCCCCCC[S+]([O-])CCCC(F)(F)C(F)(F)F)[C@H]3[C@@H]1CC[C@@H]2O (some centres unmarked) [ICI 182,780]
effect of ER antagonist on estrogen-mediated suppression of disease ([4]; mice treated with both E2 and ICI 182,780): abolished the effect of E2 on disease

CCCc1c(-c2ccc(O)cc2)nn(-c2ccc(O)cc2)c1-c1ccc(O)cc1 [PPT, propylpyrazole triol]
Spinal Cord Demyelination: number with finding/total number evaluated [3, 7]: 0/4
Spinal Cord Meningeal/Perivascular Leukocyte Infiltrates: number with finding/total number evaluated [3, 7]: 0/4
Brain Meningeal/Perivascular Leukocyte Infiltrates: average severity grade of lesions seen [3, 8]: 1

O=C(c1ccc(OCCN2CCCCC2)cc1)c1c(-c2ccc(O)cc2)sc2cc(O)ccc12 [Raloxifene, raloxifene]
onset, incidence and severity of disease (EAE) [4]: delay in onset as well as decreased incidence and severity of disease; also recorded: delayed onset of disease, as well as decreased incidence and severity

Source: patent US20040167112A1, “Use of estrogen receptor alpha modulators for the treatment of multiple sclerosis” (Wyeth, priority 2003, published 2004)
